Source: US7875599B2, “C-17-heteroaryl steroidal CYP17 inhibitors/antiandrogens, in vitro biological activities, pharmacokinetics and antitumor activity” (University of Maryland, priority 2005, dated 2011)
“Also recorded” adds a separate entry of the source.

What was measured:
[1] = tested on: LNCaP mutant AR-mediated transcription; assay: Luciferase transactivation assay in LNCaP cells transfected with ARR2-Luc; details: 18 h
Experimental: Luciferase Transactivation Assay: Transcriptional activation assay is carried out as described previously by Kim et al., above, with minor modifications. […] The pRL-null (Promega) is used as the internal control. […] Luciferase activities are measured in triplicates by using dual luciferase assay system according to the manufacturer's instruction (Promega).
The bars represent the mean light units [counts per second (cps)/unit protein, i.e., relative luciferase activity] in triplicate wells from three separate experiments.

[2] = tested on: LAPC4 human prostate tumor xenograft; assay: LAPC4 xenograft, first experiment (established tumors, 4 weeks of treatment); format: in vivo, mouse; details: 28 days
Experimental: In the first experiment, the effect of compounds 5 and 6 on the growth of well-established LAPC4 prostate cancer tumors in SCID mice is determined, and castration is used as the reference treatment. Tumor-bearing mice are assigned (n=5/group) to receive one of two doses of 5 or 6 (0.15 mmol/kg once-daily or 0.15 mmol/kg twice-daily). Tumor volumes are measured weekly and compared with controls receiving vehicle or castrated mice.
(§1) In Vivo Antitumor Studies (LAPC-4 Prostate Cancer Xenografts): All animal studies are performed according to the guidelines and approval of the Animal Care Committee of the University of Maryland School of Medicine, Baltimore. Male severe combined immunodeficient (SCID) mice 4-6 weeks of age purchased from the National Cancer Institute-Frederick Cancer Research and Development Center (Fredrick, Md.) are housed in a pathogen-free environment under controlled conditions of light and humidity and allowed free access to food and water. Tumors are developed from LAPC4 cells inoculated subcutaneously (s.c.) in the mice essentially as previously described (21). LAPC4 cells are grown in IMEM with 15% FBS plus 1% PS and 10 nm DHT until 80% confluent. Cells are scraped into DPBS, collected by centrifugation, and resuspended in Matrigel (10 mg/ml) at 3×10^7 cells/ml. Mice are injected s.c. with 100 μl of the cell suspension at one site on each flank. Tumors are measured weekly with calipers, and tumor volumes are calculated by the formula: […]).
In the first experiment, LAPC4 tumors are allowed to grow for 8-10 weeks following inoculation. […] Mice are castrated under methoxyfluorane anesthesia. Compounds 5 and 6 were prepared at 17.2 mg/ml in a 0.3% solution of hydroxypropyl cellulose in saline, and mice receiv s.c. injections daily. Control and castrated mice are treated with vehicle only. Tumors are measured weekly for the 4 weeks of treatment and tumor volumes are calculated. At the end of the treatment period, the animals are sacrificed under halothane anesthesia; tumors are excised, weighed and stored at −80° C. Animals are also weighed weekly and monitored for general health status and signs of possible toxicity due to treatment.
FIG. 6: In vivo antitumor activity of 5, 6 and orchidectomy on the growth of LAPC4 prostate tumors in male SCID mice. Groups of five mice with LAPC-4 tumors were treated with 5 (0.15 mmol/kg/day or 0.30 mmol/kg/day. Tumors volumes were measured weekly, and the percentage of change in tumor volume was determined after 28 days of treatment. The standard deviations of tumor volumes (not shown) were ±10-12% of the mean values.

[3] = male, SCID, mouse, in vivo, 1 h
Experimental: At the end of the experiment, the levels of 5 in the tumors and organs of the 5-treated mice are determined. […] This metabolite has the same retention time as the metabolite observed in the plasma (vide supra). […] The animals in the VN/124-1-treated group are sacrificed 1 h after the last VN/124-1 administration, and tumor, liver and testis are harvested and snap frozen in liquid nitrogen. Tissue samples are homogenized in phosphate buffer (pH=7.4, […]). […] The residue is reconstituted in 100 μL of the HPLC mobile phase, filtered through 0.2 μm Teflon filters and then analyzed by HPLC as described above.

[4] = tested on: LAPC4 human prostate tumor xenograft; assay: LAPC4 xenograft, second experiment (treatment from day after inoculation); format: in vivo, mouse; details: 0.15 mmol/kg twice-daily s.c.
Excerpt: The second in vivo experiment tests the ability of 5 to inhibit the growth of LAPC4 prostate cancer cells growing in SCID mice, and 16 (Chart 1), a previously identified potent CYP17 inhibitor/antiandrogen (Gregoriyev et al. and Njar et al., J. Med. Chem., 1998, 41, 902-912, above) and castration are used as reference treatments. In this experiment, treatment begins on the day that mice were inoculated subcutaneously with hormone-dependent LAPC4 cells and are castrated or injected sc twice daily with 5 or 16.
as §1
In the second experiment, mice are inoculated with LAPC4 cells and are divided into four groups of 5 mice each. The control and castrated group receiv vehicle, while the other two groups receiv either VN/85-1 (0.15 mmol/kg twice-daily, 9 a.m. and 5 p.m.) or 5 (0.15 mmol/kg twice-daily, 9 a.m. and 5 p.m.). These treatments are initiated one day after LAPC4 cell inoculation; continued for 14 weeks for control group, 19 weeks (for VN/85-1 and castration groups) and for 21 weeks for 5 treated group and tumors are measured and processed as described above.
FIG. 7: The effects of 5, 16, and orchidectomy on the formation and growth of LAPC4 prostate tumors in male SCID mice. 3×10^7 LAPC-4 cells were injected s.c. into the dorsal flank of SCID mice. One group of mice was castrated. The other groups of mice received either vehicle or 5 (0.15 mmol/kg twice-daily) or 16 (0.15 mmol/kg twice-daily). Daily treatment with 5 or 16 was initiated 1 day after cell inoculation. Tumors volumes were measured weekly, and the percentage of change in tumor volume was determined after 16 weeks of treatment * Indicates significant difference of 5 versus control, castration and 16 at week 14 (P 0.00065, 0.05 and 0.0097, respectively). ** Indicates significant difference of 5 versus castration and 16 at week 16 (P=0.047 and 0.0047, respectively). ↓-↓↓: Period of reduced administered dose of 5.

LNCaP cells = assay: LNCaP cell growth, WST-1 viability assay; details: Homo sapiens, LNCaP, 168 h, read-out: IC50, inhibition of DHT-induced LNCaP cell proliferation, 1 nM DHT, 7 days, WST-1
Experimental: To determine the effect of novel compounds on cell proliferation, cells are transferred into steroid-free medium three days prior to the start of the experiments. Steroid-free medium consisted of phenol red free RPMI supplemented with 5% dextran-coated, charcoal treated serum, and 1% penicillin/streptomycin solution. Growth studies are then performed by plating cells (3×10^4) in 24-well multi-well dishes (Corning, Inc. Corning, N.Y.). After a 24 hours attachment period, the medium is aspirated and replaced with steroid-free medium containing vehicle or the indicated concentration of DHT (1 nM) and compounds (0.1 μM-10 μM). Control wells are treated with vehicle (ethanol). This medium is changed every three days and the number of viable cells is compared by WST-1 [4-[3-(4-iodophenyl)-2-(4-nitrophenyl)-2H-5-tetrazolio]-1,3-benzene disulfonate] assay on the seventh day. Following incubation of cells for the above-mentioned time, 10% WST-1 solution is added to each well and incubated at 37° C. for three hours. Following incubation, plates are slightly shaken and immediately read at 450 nm with a scanning multi-well spectrophotometer. All results represent the average of a minimum of three wells. Additional control consists of medium alone with no cells.
Cells were grown in steroid-free medium before plating.

SMILES | effect on luciferase activity, compound alone ([1]; 0.1 and 10.0 μM, without DHT) | effect on luciferase expression induced by 1.0 nM DHT ([1]; with 1.0 nM DHT) | reduction of average final tumor volume compared to vehicle-treated control ([2]; 0.15 mmol/kg once daily s.c.) | reduction of average final tumor volume compared to vehicle-treated control ([2]; 0.15 mmol/kg twice daily s.c.) | concentration in the s.c. tumors [3] | increase of tumor volume ([4]; week 14) | reduction of tumor volume versus control mice ([4]; week 14 (b4 prints 50 mg/kg/twice daily)) | IC50 (LNCaP cells) | melting point
C[C@]12CC[C@H](O)CC1=CC[C@@H]1[C@@H]2CC[C@]2(C)C(n3cnc4ccccc43)=CC[C@@H]12 [Compound 5, 3β-Hydroxy-17-(1H-benzimidazol-1-yl)androsta-5,16-diene] | no effect | decreased in a concentration-dependent manner | 41% | 86.5% | 39.0±8.4 μg/mg tissue | 0.5 fold | 93.8% | 6 µM | –
C[C@]12CCC(=O)C=C1CC[C@@H]1[C@@H]2CC[C@]2(C)C(n3cnc4ccccc43)=CC[C@@H]12 [Compound 6, 17-(1H-benzimidazol-1-yl)androsta-4,16-diene-3-one] | – | – | ineffective | stimulation of tumor growth; also recorded: enhances tumor growth | – | – | – | – | 201 to 204 °C
